From article PMC8445441, “Elucidating the mechanism by which synthetic helper peptides sensitize Pseudomonas aeruginosa to multiple antibiotics” (PLoS Pathogens, 2021)
Read-outs that look alike come from different tables or passages of the source.

Tests used:
P. aeruginosa PAK = experiment: microbe, parasite or virus in culture; set-up: MICa: MIC of the antibiotic / MICac: MIC of the antibiotic in the combination: unit not given beside the values; settings: for FICI: antibiotic + D-11 (MICb/MICbc 64/4); for MICac: MIC of the antibiotic in the combination: with D-11 at MICbc 4
How it was run: (§1)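 Broth microdilution per CLSI in MHB: two-fold drug dilutions mixed with an equal volume of bacterial suspension at approximately 1 × 10^6 CFU/mL, incubated 18 h at 37 °C. MIC was the lowest concentration with no visible growth; triplicate runs.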

P. aeruginosa ATCC27853 = experiment: microbe, parasite or virus in culture; set-up: MICa: MIC of the antibiotic / MICac: MIC of the antibiotic in the combination: unit not given beside the values; settings: for FICI: antibiotic + D-11 (MICb/MICbc 32/4); for MICac: MIC of the antibiotic in the combination: with D-11 at MICbc 4
How it was run: as §1

P. aeruginosa PA14 = experiment: microbe, parasite or virus in culture; set-up: MICa: MIC of the antibiotic / MICac: MIC of the antibiotic in the combination: unit not given beside the values; settings: strain PA14; for FICI: antibiotic + D-11 (MICb/MICbc 128/4); for MICa: MIC of the antibiotic: antibiotic alone; for MICa: MIC of the antibiotic / MICac: MIC of the antibiotic in the combination: unit not given; for MICac: MIC of the antibiotic in the combination: with D-11 at MICbc 4
How it was run: as §1

P. aeruginosa NR-31040 = experiment: microbe, parasite or virus in culture; set-up: MICa: MIC of the antibiotic / MICac: MIC of the antibiotic in the combination: unit not given beside the values; settings: strain NR-31040; for FICI: antibiotic + D-11 (MICb/MICbc 128/4); for MICa: MIC of the antibiotic: antibiotic alone; for MICa: MIC of the antibiotic / MICac: MIC of the antibiotic in the combination: unit not given; for MICac: MIC of the antibiotic in the combination: with D-11 at MICbc 4
How it was run: as §1

P. aeruginosa NR-31041 = experiment: microbe, parasite or virus in culture; set-up: MICa: MIC of the antibiotic / MICac: MIC of the antibiotic in the combination: unit not given beside the values; settings: for FICI: antibiotic + D-11 (MICb/MICbc 64/4); for MICac: MIC of the antibiotic in the combination: with D-11 at MICbc 4
How it was run: as §1

P. aeruginosa AUMC-Pa-6 = experiment: microbe, parasite or virus in culture; settings: for FICI: antibiotic + D-11 (MICb/MICbc 64/4); for MICac: MIC of the antibiotic in the combination: with D-11 at MICbc 4
How it was run: as §1

P. aeruginosa AUMC-Pa-3 = experiment: microbe, parasite or virus in culture; settings: for FICI: antibiotic + D-11 (MICb/MICbc 128/4); for MICac: MIC of the antibiotic in the combination: with D-11 at MICbc 4
How it was run: as §1

P. aeruginosa PAO1 = experiment: microbe, parasite or virus in culture
How it was run: as §1

P. aeruginosa AUMC-Pa-5 = experiment: microbe, parasite or virus in culture; settings: strain AUMC-Pa-5; for FICI: antibiotic + D-11 (MICb/MICbc 64/4); for MICa: MIC of the antibiotic: antibiotic alone; for MICa: MIC of the antibiotic / MICac: MIC of the antibiotic in the combination: unit not given; for MICac: MIC of the antibiotic in the combination: with D-11 at MICbc 4
How it was run: as §1

P. aeruginosa AUMC-Pa-4 = experiment: microbe, parasite or virus in culture; settings: for FICI: antibiotic + D-11 (MICb/MICbc 128/4); for MICac: MIC of the antibiotic in the combination: with D-11 at MICbc 4
How it was run: as §1

P. aeruginosa AUMC-Pa-1 = settings: strain AUMC-Pa-1; antibiotic + D-11 (MICb/MICbc 128/4)
How it was run: as §1

P. aeruginosa AUMC-Pa-2 = settings: strain AUMC-Pa-2; antibiotic + D-11 (MICb/MICbc 64/4)
How it was run: as §1

P. aeruginosa HM-214 = settings: strain HM-214; antibiotic + D-11 (MICb/MICbc 128/4)
How it was run: as §1

[1] = system: clinical P. aeruginosa isolates; experiment: microbe, parasite or virus in culture; settings: Pseudomonas aeruginosa, 18 h
How it was run: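 Broth microdilution per CLSI in MHB, two-fold drug dilutions mixed with an equal volume of bacteria at about 1 × 10^6 CFU/mL. After 18 h at 37 °C, MIC taken as the lowest concentration with no visible growth; run in triplicate.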

[2] = strain ATCC27853, unit not given
[3] = strain NR-31041, unit not given
[4] = strain AUMC-Pa-6, unit not given
[5] = strain AUMC-Pa-3, unit not given
[6] = S3 Table, PAO1, antibiotic + 2 μM D-11
[7] = S3 Table, PAO1, antibiotic + 4 μM D-11
[8] = strain AUMC-Pa-4, unit not given

CC1(C)S[C@@H]2[C@H](NC(=O)C(C(=O)O)c3ccccc3)C(=O)N2[C@H]1C(=O)O (stereo partly shown) [Carbenicillin]
FICI (P. aeruginosa PAK; strain PAK): 0.563
MICa: MIC of the antibiotic (P. aeruginosa PAK; strain PAK, antibiotic alone, unit not given): 128
MICac: MIC of the antibiotic in the combination (P. aeruginosa PAK; strain PAK, unit not given): 64
FICI (P. aeruginosa ATCC27853; strain ATCC27853): 0.375
MICa: MIC of the antibiotic (P. aeruginosa ATCC27853; strain ATCC27853, antibiotic alone, unit not given): 128
MICac: MIC of the antibiotic in the combination (P. aeruginosa ATCC27853; [2]): 32
FICI (P. aeruginosa PA14): 1.031
MICa: MIC of the antibiotic (P. aeruginosa PA14): 128/128
MICac: MIC of the antibiotic in the combination (P. aeruginosa PA14): 128/128
FICI (P. aeruginosa NR-31040): 1.031
MICa: MIC of the antibiotic (P. aeruginosa NR-31040): 64/64
MICac: MIC of the antibiotic in the combination (P. aeruginosa NR-31040): 64/64
FICI (P. aeruginosa NR-31041; strain NR-31041): 1.063
MICa: MIC of the antibiotic (P. aeruginosa NR-31041; strain NR-31041, antibiotic alone, unit not given): 128/128
MICac: MIC of the antibiotic in the combination (P. aeruginosa NR-31041; [3]): 128/128
FICI (P. aeruginosa AUMC-Pa-6; strain AUMC-Pa-6): 1.063
MICa: MIC of the antibiotic (P. aeruginosa AUMC-Pa-6; strain AUMC-Pa-6, antibiotic alone, unit not given): 128/128
MICac: MIC of the antibiotic in the combination (P. aeruginosa AUMC-Pa-6; [4]): 128/128
FICI (P. aeruginosa AUMC-Pa-3; strain AUMC-Pa-3): 0.281
MICa: MIC of the antibiotic (P. aeruginosa AUMC-Pa-3; strain AUMC-Pa-3, antibiotic alone, unit not given): 128
MICac: MIC of the antibiotic in the combination (P. aeruginosa AUMC-Pa-3; [5]): 32
FICI (P. aeruginosa PAO1; [6]): 0.313
FICI (P. aeruginosa PAO1; [7]): 0.188
MICac: the MIC for the antibiotic in the combination (P. aeruginosa PAO1; S3 Table, PAO1, with 2 μM D-11): 16 µM
MICac: the MIC for the antibiotic in the combination (P. aeruginosa PAO1; S3 Table, PAO1, with 4 μM D-11): 4 µM
MICa: the MIC of antibiotics (P. aeruginosa PAO1; S3 Table, antibiotic alone, PAO1): 64 µM
FICI (P. aeruginosa AUMC-Pa-5): 1.063
MICa: MIC of the antibiotic (P. aeruginosa AUMC-Pa-5): 128/128
MICac: MIC of the antibiotic in the combination (P. aeruginosa AUMC-Pa-5): 128/128
FICI (P. aeruginosa AUMC-Pa-4; strain AUMC-Pa-4): 0.531
MICa: MIC of the antibiotic (P. aeruginosa AUMC-Pa-4; strain AUMC-Pa-4, antibiotic alone, unit not given): 128
MICac: MIC of the antibiotic in the combination (P. aeruginosa AUMC-Pa-4; [8]): 64
FICI (P. aeruginosa AUMC-Pa-1): 0.531
FICI (P. aeruginosa AUMC-Pa-2): 1.063
FICI (P. aeruginosa HM-214): 1.031
MIC ([1]; read-out: Antibiotic sensibility (MIC) of clinical P. aeruginosa isolate AUMC-Pa-1, strain AUMC-Pa-1, antibiotic alone): > 128 µM
MIC ([1]; read-out: Antibiotic sensibility (MIC) of clinical P. aeruginosa isolate AUMC-Pa-2, strain AUMC-Pa-2, antibiotic alone): 64 µM
MIC ([1]; read-out: Antibiotic sensibility (MIC) of clinical P. aeruginosa isolate AUMC-Pa-3, strain AUMC-Pa-3, antibiotic alone): 128 µM
MIC ([1]; read-out: Antibiotic sensibility (MIC) of clinical P. aeruginosa isolate AUMC-Pa-4, strain AUMC-Pa-4, antibiotic alone): 128 µM
MIC ([1]; read-out: Antibiotic sensibility (MIC) of clinical P. aeruginosa isolate AUMC-Pa-5, strain AUMC-Pa-5, antibiotic alone): 128 µM
MIC ([1]; read-out: Antibiotic sensibility (MIC) of clinical P. aeruginosa isolate AUMC-Pa-6, strain AUMC-Pa-6, antibiotic alone): 128 µM
MIC ([1]; read-out: Antibiotic sensibility (MIC) of clinical P. aeruginosa isolate HM-214, strain HM-214, antibiotic alone): 128 µM
MIC ([1]; read-out: Antibiotic sensibility (MIC) of clinical P. aeruginosa isolate NR-31040, strain NR-31040, antibiotic alone): 64 µM
MIC ([1]; read-out: Antibiotic sensibility (MIC) of clinical P. aeruginosa isolate NR-31041, strain NR-31041, antibiotic alone): 128 µM

CO[C@@H]1[C@@H](OC(=O)c2ccc(C)[nH]2)[C@@H](O)[C@H](Oc2ccc3c(O)c(NC(=O)c4ccc(O)c(CC=C(C)C)c4)c(=O)oc3c2Cl)OC1(C)C [Chlorobiocin]
MIC (P. aeruginosa PAK; Pseudomonas aeruginosa, 18 h, read-out: MICa: MIC of the antibiotic): 0.5 µM
FICI (P. aeruginosa PAK; strain PAK): 1.063
MICac: MIC of the antibiotic in the combination (P. aeruginosa PAK; strain PAK, unit not given): 0.5/0.5
MIC (P. aeruginosa ATCC27853; Pseudomonas aeruginosa, ATCC27853, 18 h, read-out: MICa: MIC of the antibiotic): 0.5 µM
FICI (P. aeruginosa ATCC27853; strain ATCC27853): 1.125
MICac: MIC of the antibiotic in the combination (P. aeruginosa ATCC27853; [2]): 0.5/0.5
FICI (P. aeruginosa PA14): 1.031
MICa: MIC of the antibiotic (P. aeruginosa PA14): 1/1
MICac: MIC of the antibiotic in the combination (P. aeruginosa PA14): 1/1
FICI (P. aeruginosa NR-31040): 1.031
MICa: MIC of the antibiotic (P. aeruginosa NR-31040): 1/1
MICac: MIC of the antibiotic in the combination (P. aeruginosa NR-31040): 1/1
MIC (P. aeruginosa NR-31041; Pseudomonas aeruginosa, NR31041, 18 h, read-out: MICa: MIC of the antibiotic): 1 µM
FICI (P. aeruginosa NR-31041; strain NR-31041): 0.563
MICac: MIC of the antibiotic in the combination (P. aeruginosa NR-31041; [3]): 0.5
MIC (P. aeruginosa AUMC-Pa-6; Pseudomonas aeruginosa, AUMCPA6, 18 h, read-out: MICa: MIC of the antibiotic): 0.25 µM
FICI (P. aeruginosa AUMC-Pa-6; strain AUMC-Pa-6): 1.063
MICac: MIC of the antibiotic in the combination (P. aeruginosa AUMC-Pa-6; [4]): 0.25/0.25
MIC (P. aeruginosa AUMC-Pa-3; Pseudomonas aeruginosa, AUMCPA3, 18 h, read-out: MICa: MIC of the antibiotic): 0.5 µM
FICI (P. aeruginosa AUMC-Pa-3; strain AUMC-Pa-3): 1.031
MICac: MIC of the antibiotic in the combination (P. aeruginosa AUMC-Pa-3; [5]): 0.5/0.5
MIC (P. aeruginosa PAO1; Pseudomonas aeruginosa, PAO1, 18 h, read-out: MICa: the MIC of antibiotics): 0.5 µM
FICI (P. aeruginosa PAO1; [6]): 0.313
FICI (P. aeruginosa PAO1; [7]): 0.375
MICac: the MIC for the antibiotic in the combination (P. aeruginosa PAO1; S3 Table, PAO1, with 2 μM D-11): 0.125 µM
MICac: the MIC for the antibiotic in the combination (P. aeruginosa PAO1; S3 Table, PAO1, with 4 μM D-11): 0.125 µM
FICI (P. aeruginosa AUMC-Pa-5): 2.063
MICa: MIC of the antibiotic (P. aeruginosa AUMC-Pa-5): 1
MICac: MIC of the antibiotic in the combination (P. aeruginosa AUMC-Pa-5): 2
MIC (P. aeruginosa AUMC-Pa-4; Pseudomonas aeruginosa, AUMCPA4, 18 h, read-out: MICa: MIC of the antibiotic): 0.25 µM
FICI (P. aeruginosa AUMC-Pa-4; strain AUMC-Pa-4): 2.031
MICac: MIC of the antibiotic in the combination (P. aeruginosa AUMC-Pa-4; [8]): 0.5
FICI (P. aeruginosa AUMC-Pa-1): 1.031
FICI (P. aeruginosa AUMC-Pa-2): 2.063
FICI (P. aeruginosa HM-214): 1.031
MIC ([1]; read-out: Antibiotic sensibility (MIC) of clinical P. aeruginosa isolate AUMC-Pa-1): 4 µM
MIC ([1]; read-out: Antibiotic sensibility (MIC) of clinical P. aeruginosa isolate AUMC-Pa-2): 0.25 µM
MIC ([1]; read-out: Antibiotic sensibility (MIC) of clinical P. aeruginosa isolate AUMC-Pa-3): 0.5 µM
MIC ([1]; read-out: Antibiotic sensibility (MIC) of clinical P. aeruginosa isolate AUMC-Pa-4): 0.25 µM
MIC ([1]; read-out: Antibiotic sensibility (MIC) of clinical P. aeruginosa isolate AUMC-Pa-5): 1 µM
MIC ([1]; read-out: Antibiotic sensibility (MIC) of clinical P. aeruginosa isolate AUMC-Pa-6): 0.25 µM
MIC ([1]; read-out: Antibiotic sensibility (MIC) of clinical P. aeruginosa isolate HM-214): 1 µM
MIC ([1]; read-out: Antibiotic sensibility (MIC) of clinical P. aeruginosa isolate NR-31040): 1 µM
MIC ([1]; read-out: Antibiotic sensibility (MIC) of clinical P. aeruginosa isolate NR-31041): 1 µM
